We go through five compounds from patent publication US5298521A, “1,5-diphenyl-3-pyrazolylalkyl-N-hydroxydithiocaramates, compositions and use” (Ortho Pharmaceutical Corporation, priority 1993, dated 1994).

Assay [1] deals with T1, RBL-1 cell 5-lipoxygenase (Rattus norvegicus, UniProt P12527).
T1 construct: the supernatant was saved as the source of enzymes; endogenous in cells; host or cells: RBL-1 rat basophilic leukemia cells, homogenate supernatant
T1 sequence (P12527 1-673): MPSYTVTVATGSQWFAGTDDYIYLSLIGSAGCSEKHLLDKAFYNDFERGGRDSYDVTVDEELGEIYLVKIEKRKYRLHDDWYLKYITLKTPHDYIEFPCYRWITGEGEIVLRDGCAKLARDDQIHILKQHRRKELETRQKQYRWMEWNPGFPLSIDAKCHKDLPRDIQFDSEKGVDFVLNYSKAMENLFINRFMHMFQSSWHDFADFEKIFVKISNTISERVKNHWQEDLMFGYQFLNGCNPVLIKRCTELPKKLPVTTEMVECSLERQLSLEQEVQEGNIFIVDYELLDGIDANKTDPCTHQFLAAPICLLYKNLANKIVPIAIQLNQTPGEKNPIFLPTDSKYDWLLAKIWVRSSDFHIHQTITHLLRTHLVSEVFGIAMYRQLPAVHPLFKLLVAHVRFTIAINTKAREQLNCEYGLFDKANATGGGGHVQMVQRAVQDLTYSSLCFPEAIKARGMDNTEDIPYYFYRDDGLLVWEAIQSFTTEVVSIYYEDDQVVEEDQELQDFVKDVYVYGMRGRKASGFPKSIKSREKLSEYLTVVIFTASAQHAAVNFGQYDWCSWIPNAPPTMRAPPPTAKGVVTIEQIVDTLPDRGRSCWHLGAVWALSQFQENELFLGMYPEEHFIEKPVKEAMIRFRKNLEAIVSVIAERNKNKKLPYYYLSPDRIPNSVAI
The assay can be described thus: RBL-1 cell 5-lipoxygenase, cell homogenate supernatant (Procedure II). Particulars: RBL-1 homogenate, 3 μM; read-out: PROC. II % INHIBITION 5-LO. The assay is classed as biochemical. The method, then: (§1) RBL-1 cell 5-lipoxygenase and cyclooxygenase
(§2) Rat basophilic leukemia cells (RBL-1; 5×10^7 viable cells/mL) were disrupted by homogenization on ice (four 20 sec bursts) with a Brinkman polytron. Complete cell breakage was verified microscopically. The homogenate was then centrifuged at 10,000×g for 48 minutes at 4° C. The pellet was discarded and the supernatant was saved as the source of enzymes. The supernatant was pre-incubated for five minutes at 37° C. in the presence of 2 mM of CaCl2 and compound or vehicle (1% DMSO). The conversion of AA into 5-LO products was initiated by adding 10 μL (50 μCi) of 1-^14 C-AA to each tube and incubated at 37° C. for 20 minutes. The reaction was stopped by adjusting the pH of each sample to 3 to 3.5 with 2M formic acid. Samples were extracted with three volumes of chloroform to isolate the products of 5-LO formed during the reaction. Fractions were dried under nitrogen, then resuspended in 40 μL of chloroform and spotted onto silica gel HL plates. The plates were developed in A-9 solvent. The dried plates were analyzed using a Bioscan Imaging TLC scanner to determine the percentage of radiolabelled AA converted to 5-HETE in each sample.

Assay [2] concerns CO in intact RBL-1 cells. Put plainly: CO inhibition in intact RBL-1 cells (Procedure III). The assay is classed as cell-based, rat. The settings on record: superscript = number of experiments, read-out: PROC. III IC50 CO. The method, then:
(§3) The ability to inhibit 5-LO and CO in intact RBL-1 cells was also evaluated. RBL-1 cells were maintained in culture in minimal essential medium (Bio*Whittaker, Walkersville, MD), containing 12.5% fetal calf serum, 10 mg/mL streptomycin, 10 I.U./mL penicillin G, […] gentamycin and 2 mM L-glutamine (Bio*Whittaker, Walkersville, MD). Cells were collected by centrifugation, washed once in HBSS, and resuspended at a concentration of 1×10^5 cells/mL. Cells were incubated in the presence of vehicle or drug then centrifuged at 800×g for 10 minutes at 4° C. The supernatant was removed by aspiration and the cells were resuspended in 0.5 mL of HBSS. The reaction was started by the addition of 20 μg/mL of calcium ionophore A-23187 (mixed calcium and magnesium salts, Calbiochem, La Jolla CA) and allowed to proceed for 15 minutes, then stopped by plunging the tubes into a slush ice bath. The conversion of AA to 5-LO products was initiated by the addition of 10 μL (50 uCi) of 1-^14 C-AA. Products were isolated by acidification and extraction, followed by thin layer chromatography analysis as described above. Radioactive areas corresponding to authentic 5-LO and CO products were quantitated by the Bioscan 2000 Imaging System.

Assay [3] has as its target T2, 5-LO in intact RBL-1 cells (Rattus norvegicus, UniProt P12527).
T2 construct: endogenous in cells; host or cells: intact RBL-1 cells
T2 sequence (P12527 1-673): T1 sequence (P12527 1-673)
Put plainly: 5-LO inhibition in intact RBL-1 cells (Procedure III). Particulars: read-out: PROC. III IC50 5-LO. It counts as cell-based. On the procedure: as §3

For assay [4], the target named is T3, RBL-1 cell cyclooxygenase (Rattus norvegicus, UniProt Q63921).
T3 construct: the supernatant was saved as the source of enzymes; endogenous in cells; host or cells: RBL-1 rat basophilic leukemia cells, homogenate supernatant
T3 sequence (Q63921 27-602): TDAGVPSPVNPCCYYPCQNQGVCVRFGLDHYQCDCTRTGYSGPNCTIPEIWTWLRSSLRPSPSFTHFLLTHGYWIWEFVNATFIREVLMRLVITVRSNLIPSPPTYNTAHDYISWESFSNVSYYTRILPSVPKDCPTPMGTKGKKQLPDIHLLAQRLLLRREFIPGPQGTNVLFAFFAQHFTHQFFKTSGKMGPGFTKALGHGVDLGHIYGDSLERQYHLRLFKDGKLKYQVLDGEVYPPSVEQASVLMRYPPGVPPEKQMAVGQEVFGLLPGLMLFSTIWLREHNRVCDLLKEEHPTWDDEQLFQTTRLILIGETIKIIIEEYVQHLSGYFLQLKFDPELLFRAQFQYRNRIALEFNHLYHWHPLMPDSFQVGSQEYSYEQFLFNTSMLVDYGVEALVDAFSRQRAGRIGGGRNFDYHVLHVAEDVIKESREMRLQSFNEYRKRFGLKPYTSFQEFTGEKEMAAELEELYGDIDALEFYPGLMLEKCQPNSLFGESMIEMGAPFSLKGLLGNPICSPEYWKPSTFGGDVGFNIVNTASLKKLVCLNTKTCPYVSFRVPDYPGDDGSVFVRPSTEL
Put plainly: RBL-1 cell cyclooxygenase, cell homogenate supernatant (Procedure II). The assay is classed as biochemical. Particulars: RBL-1 homogenate, 3 μM; read-out: PROC. II % INHIBITION CO. On the procedure: as §1, §2

Assay [5] concerns the target T4, Sheep seminal vesicle cyclooxygenase (Ovis aries, UniProt P05979).
T4 construct: Sheep seminal vesicle (SSV) cyclooxygenase (95% pure); purchased Biomol (Plymouth Meeting, Pa.); host or cells: sheep seminal vesicle
T4 sequence (P05979 25-600): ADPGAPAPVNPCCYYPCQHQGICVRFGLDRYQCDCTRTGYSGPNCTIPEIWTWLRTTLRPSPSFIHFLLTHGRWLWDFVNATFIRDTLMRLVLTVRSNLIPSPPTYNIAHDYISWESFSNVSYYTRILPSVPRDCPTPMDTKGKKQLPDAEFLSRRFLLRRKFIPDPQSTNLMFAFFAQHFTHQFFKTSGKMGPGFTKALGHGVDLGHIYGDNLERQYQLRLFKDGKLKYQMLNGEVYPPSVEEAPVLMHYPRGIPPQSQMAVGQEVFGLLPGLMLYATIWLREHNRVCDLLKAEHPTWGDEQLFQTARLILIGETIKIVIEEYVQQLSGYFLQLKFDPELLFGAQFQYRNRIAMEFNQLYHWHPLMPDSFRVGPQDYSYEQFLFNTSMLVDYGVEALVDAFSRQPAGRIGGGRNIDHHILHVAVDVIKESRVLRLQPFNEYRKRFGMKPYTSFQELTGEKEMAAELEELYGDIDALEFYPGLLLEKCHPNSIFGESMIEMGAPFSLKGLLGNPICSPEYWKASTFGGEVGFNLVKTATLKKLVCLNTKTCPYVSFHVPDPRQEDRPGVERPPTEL
Put plainly: Sheep seminal vesicle cyclooxygenase (Procedure I). It counts as biochemical. The settings on record: read-out: PROC. I % INHIB CO. The method, then: Sheep seminal vesicle cyclooxygenase Sheep seminal vesicle (SSV) cyclooxygenase (95% pure, prostaglandin endoperoxide synthase, EC 1.14.99.1 specific activity 24 units/mg protein) obtained as a lyophilized powder from Biomol (Plymouth Meeting, Pa.) was reconstituted at a concentration of 59 mg/mL in Hanks' Balanced Salt Solution (HBSS). The enzyme was divided into 200 μL aliquots, snap frozen with liquid N2, and stored at -70° C. unitl immediately prior to use. Measurements of CO activity were carried out in polypropylene tubes containing 495 μL of HBSS to which was added 5 μL of inhibitor or dimethylsulfoxide (DMSO; vehicle control) and 6 μL of SSV CO solution. The tubes were mixed on a vortex shaker, preincubated for 5 min at 37° C. prior to the initiation of the reaction. The reaction was started by the addition of [^14 C]-arachidonic acid (1-^14 C-AA, Amersham, Arlington Heights, Il) in 10 μL of methanol. Tubes were again vortexed and incubated in a water bath for 20 minutes after which the tubes were removed and the reaction stopped by acidification with the addition of 1 mL 2M formic acid. Lipophilic products were extracted with 3 mL chloroform and concentrated to dryness under N2. Each pellet was reconstituted with 40 μL of chloroform and spotted on a Whatman Silicon thin-layer chromatography plate and developed in a chromatography tank containing A-9 solvent (11:5:2:1 V:V:V:V, ethyl acetate:trimethylpentane:acetic acid:double distilled-H2 O). Radioactive cyclooxygenase products (prostaglandin D2, prostaglandin E2, etc.) were measured using a Bioscan System 200 Imaging Scanner. Inhibition of enzyme activity was calculated by comparing the areas under the curve produced in the presence or absence of test compound.

On to `COc1ccc(-n2nc(CSC(=S)N(C)O)cc2-c2ccc(Cl)cc2)cc1` [1-A, 5-(4-chlorophenyl)-1-(4-methoxyphenyl)-3-pyrazolylmethyl-N-hydroxy-N-methyl dithiocarbamate], for which the inhibition at 3 µM in assay [1] worked out at 85%; in assay [4], 100%. In addition, the IC50 in assay [2] came out at 230 nM; in assay [3], 2500 nM.
For `COc1ccc(-n2nc(CSC(=S)N(C)O)cc2-c2ccc(C)cc2)cc1` [1-F] the same measures were 83%, 100%, 60 nM and 2400 nM.
With `COc1ccc(-n2nc(CSC(=S)N(O)C(C)C)c(Cl)c2-c2ccc(C)cc2)cc1` [1-I], the inhibition at 3 µM was 0% in assay [5], 82% in assay [1] and 0% in assay [4].
With `COc1ccc(-n2nc(CSC(=S)N(C)O)c(Br)c2-c2ccc(C)cc2)cc1` [1-J], the inhibition at 3 µM in assay [5] was 36%; in assay [1] it was 83%; in assay [4], 52%.
The matching figures for `COc1ccc(-n2nc(CSC(=S)N(O)C(C)C)c(Br)c2-c2ccc(C)cc2)cc1` [1-K]: 0%, 87% and 0%.

By IC50 is commonly meant the concentration that gives 50% inhibition.
